Measured values reported in article PMC7269057, “Synthesis of calix[4]azacrown substituted sulphonamides with antioxidant, acetylcholinesterase, butyrylcholinesterase, tyrosinase and carbonic anhydrase inhibitory action” (Journal of Enzyme Inhibition and Medicinal Chemistry, 2020).
Like-named read-outs stand apart in the source and are kept apart here.

Columns and labels:
[1] = Metal chelating activity; settings: ferrous chloride/ferrozine, 562 nm; mean ± SD of three measurements; read-out: IC50 Metal Chelate
Protocol: The chelating ability of synthesised compounds was examined according to the method of Dinis et al.[37]. The tested compounds at different concentrations were added to each well and 4 µL of 2 mM ferrous (II) chloride was added. Then 8 µL of 5 mM ferrozine was added and the reaction was started. After 10 min at room temperature, the absorbance was measured at 562 nm against a blank. The results were expressed as a percentage of inhibition of the ferrozine-Fe^2+ complex formation. The percentage inhibition of the ferrozine -Fe^2+ complex formation was calculated using the formula given below: Chelating ability (%)=(Acontrol−Asample)/Acontrol×100 where A is the absorbance. Tests were carried out in triplicate. EDTA was used as a positive control.

[2] = target: T1, hCA XII (Homo sapiens, UniProt O43570); assay: CA inhibition, stopped flow CO2 hydrase assay; assay type: biochemical; settings: mean from 3 assays, errors ± 5–10%
T1 construct: made in house
T1 sequence (O43570 25-354): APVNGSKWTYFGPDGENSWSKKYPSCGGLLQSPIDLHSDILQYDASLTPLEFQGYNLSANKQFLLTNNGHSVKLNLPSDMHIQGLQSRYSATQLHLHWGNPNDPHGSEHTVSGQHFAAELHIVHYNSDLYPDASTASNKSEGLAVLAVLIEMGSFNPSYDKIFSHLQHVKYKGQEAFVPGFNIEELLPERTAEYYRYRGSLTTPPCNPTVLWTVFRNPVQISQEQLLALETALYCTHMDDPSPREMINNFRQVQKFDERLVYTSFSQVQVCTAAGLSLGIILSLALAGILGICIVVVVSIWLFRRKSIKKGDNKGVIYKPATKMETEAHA
Protocol: (§1) An SX.18 MV-R Applied Photophysics (Oxford, UK) stopped-flow instrument has been used to assay the inhibition of various CA isozymes. Phenol Red (at a concentration of 0.2 mM) has been used as an indicator, working at the absorbance maximum of 557 nm, with 10 mM Hepes (pH 7.4) as a buffer, 0.1 M Na2SO4 or NaClO4 (for maintaining constant the ionic strength; […]. Stock solutions of inhibitors were prepared at a concentration of 10 mM (in DMSO-water 1:1, v/v) and dilutions up to 0.01 nM done with the assay buffer mentioned above. At least 7 different inhibitor concentrations have been used for measuring the inhibition constant. Inhibitor and enzyme solutions were pre-incubated together for 10 min at room temperature before assay, to allow for the formation of the E-I complex. Triplicate experiments were done for each inhibitor concentration, and the value reported throughout the paper is the mean of such results. The inhibition constants were obtained by nonlinear least-squares methods using the Cheng-Prusoff equation, as reported earlier, and represent the mean from at least three different determinations1[27–32]. All CA isozymes used here were recombinant proteins obtained as reported earlier by our group.

[3] = target: T2, hCA II (Homo sapiens, UniProt P00918); assay: CA inhibition, stopped flow CO2 hydrase assay; assay type: biochemical; settings: mean from 3 assays, errors ± 5–10%
T2 construct: made in house
Protocol: as §1

[4] = target: BChE (Homo sapiens, UniProt P06276); assay: Anticholinesterase assay (Ellman), BChE; assay type: biochemical; settings: read-out: BChE assay % inhibition
Chain of BChE (P06276 29-602): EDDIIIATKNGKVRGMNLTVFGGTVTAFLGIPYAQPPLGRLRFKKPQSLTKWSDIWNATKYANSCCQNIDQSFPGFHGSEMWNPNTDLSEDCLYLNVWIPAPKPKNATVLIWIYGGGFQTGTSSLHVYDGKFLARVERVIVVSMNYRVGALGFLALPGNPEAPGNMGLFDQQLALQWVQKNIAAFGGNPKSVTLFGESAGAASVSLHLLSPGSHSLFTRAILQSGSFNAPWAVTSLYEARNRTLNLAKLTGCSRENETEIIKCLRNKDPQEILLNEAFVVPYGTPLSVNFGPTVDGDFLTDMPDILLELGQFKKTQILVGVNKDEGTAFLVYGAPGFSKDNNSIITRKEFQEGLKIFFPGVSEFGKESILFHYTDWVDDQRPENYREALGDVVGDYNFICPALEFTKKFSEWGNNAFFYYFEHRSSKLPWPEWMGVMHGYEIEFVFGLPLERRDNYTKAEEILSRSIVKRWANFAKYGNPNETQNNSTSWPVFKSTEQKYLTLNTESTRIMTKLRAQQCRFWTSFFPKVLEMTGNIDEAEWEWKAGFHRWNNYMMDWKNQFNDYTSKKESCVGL
Protocol: The inhibitory effect of novel calix[4]azacrown substituted sulphonamide Schiff bases CX(1–6) on AChE and BChE activities was determined according to the slightly modified spectrophotometric method of Ellman et al.[38]. All compounds were dissolved in DMSO to prepare stock solutions at 4 mM concentration. Aliquots of 150 µL of 100 mM sodium phosphate buffer (pH 8.0), 10 µL of sample solution and 20 µL AChE (or BChE) solution were mixed and incubated for 15 min at 25 °C, and DTNB [5,5′-Dithio-bis(2-nitro-benzoic)acid] (10 µL) is added. The reaction was then initiated by the addition of acetylthiocholine iodide (or butyrylthiocholine iodide) (10 µL). […]. Tests were carried out in triplicate. Galantamine was used as positive control.

[5] = target: T3, hCA I (Homo sapiens, UniProt P00915); assay: biochemical; settings: stopped flow CO2 hydrase assay; mean from 3 assays, errors ± 5–10%
T3 construct: made in house
T3 sequence (P00915 whole entry): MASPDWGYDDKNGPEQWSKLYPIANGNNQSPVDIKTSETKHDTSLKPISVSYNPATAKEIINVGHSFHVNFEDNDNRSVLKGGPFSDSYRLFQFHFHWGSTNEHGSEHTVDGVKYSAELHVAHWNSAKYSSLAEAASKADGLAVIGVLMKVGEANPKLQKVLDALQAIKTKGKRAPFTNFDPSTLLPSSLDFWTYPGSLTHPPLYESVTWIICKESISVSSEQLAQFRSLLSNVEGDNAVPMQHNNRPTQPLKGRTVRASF
From the text: (§2) An SX.18 MV-R Applied Photophysics (Oxford, UK) stopped-flow instrument has been used to assay the inhibition of various CA isozymes[26]. […] The inhibition constants were obtained by nonlinear least-squares methods using the Cheng-Prusoff equation, as reported earlier, and represent the mean from at least three different determinations1[27–32].

[6] = target: T4, hCA IV (Homo sapiens, UniProt P22748); assay: biochemical; settings: stopped flow CO2 hydrase assay; mean from 3 assays, errors ± 5–10%
T4 construct: made in house
T4 sequence (P22748 19-312): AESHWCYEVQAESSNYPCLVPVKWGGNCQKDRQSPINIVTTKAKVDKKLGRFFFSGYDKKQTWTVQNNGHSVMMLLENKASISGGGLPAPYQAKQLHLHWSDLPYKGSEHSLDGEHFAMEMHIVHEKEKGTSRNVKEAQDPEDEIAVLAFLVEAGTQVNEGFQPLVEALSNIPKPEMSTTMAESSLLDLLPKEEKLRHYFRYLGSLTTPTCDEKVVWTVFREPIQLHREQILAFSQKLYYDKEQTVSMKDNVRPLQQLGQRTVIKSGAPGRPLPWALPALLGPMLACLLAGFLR
From the text: as §2

[7] = target: T5, hCA IX (Homo sapiens, UniProt Q16790); assay: biochemical; settings: stopped flow CO2 hydrase assay; mean from 3 assays, errors ± 5–10%
T5 construct: made in house
From the text: as §2

[8] = ABTS cation radical decolorisation assay; settings: 6 min at room temperature, 734 nm; mean ± SD of three measurements
Protocol: The percent inhibition of decolorisation of ABTS [2,2′-azino-bis(3-ethylbenzothiazoline-6-sulfonic acid)] cation radical is obtained as a function of time and concentration and evaluated by comparison with the BHT and BHA compounds used as standard[35]^,[36]. The tested compounds at different concentrations are added to each well and 160 µL of 7 mM ABTS solution is added. After 6 min at room temperature, the absorbances were measured at 734 nm. ABTS cation radical decolorisation activities were determined by using the equation below: %Inhibition = (Acontrol−Asample)/Acontrol × 100 where A is the absorbance. Tests were carried out in triplicate. BHA and BHT were used as positive control.

[9] = tested on: Tyrosinase from mushroom; assay: Anti-tyrosinase activity (diphenolase, L-DOPA substrate); assay type: biochemical; settings: at 200 µM
Protocol: Anti-tyrosinase activity of the compounds was performed according to the method designed by Hearing and Jimenez[39]. Firstly, the inhibition of diphenolase function of the compounds was evaluated and L-DOPA was used as substrate. Tyrosinase from mushroom (E.C. 1.14.18.1) (30 U, 28 nM) was dissolved in Na-phosphate buffer (pH = 6.8, […]) and the compounds were added to the solution for pre-incubation at room temperature for ten minutes. After incubation, 0.5 mM L-DOPA was added to the mixture and the change in absorbance was measured at 475 nm at 37 °C. For positive control, kojic acid was used. The following formula was used to calculate the percentage of all enzyme inhibitions: Inhibition (%) = (Acontrol–Asample)/Acontrol × 100

[10] = DPPH radical scavenging assay; settings: 30 min in the dark, 517 nm; mean ± SD of three measurements; read-out: IC50 DPPH Free Radical
Protocol: The DPPH (2,2-diphenyl-1-picrylhydrazyl) radical scavenging activity of the synthesised compounds was determined by a spectrophotometric method based on the reduction of an ethanol solution of DPPH[33]^,[34]. 2, 5, 10, 20 µL of 1 mM stock solution of each compound was completed to 40 µL with the DMSO and mixed with 160 µL of 0.1 mM of DPPH free radical solution. The mixture was led to stand for 30 min in the dark and the absorbance was then measured at 517 nm against a blank. Inhibition of free radical, DPPH, in percent (I %), was calculated according to the formula: I %=(Acontrol−Asample)/Acontrol×100 where Acontrol is the absorbance of the control reaction (containing all reagents except for the tested compounds), and Asample is the absorbance of the test compounds. Tests were carried out in triplicate. BHA and BHT were used as positive control.

[11] = target: T6, hCA VII (Homo sapiens, UniProt P43166); assay: biochemical; settings: stopped flow CO2 hydrase assay; mean from 3 assays, errors ± 5–10%
T6 construct: made in house
T6 sequence (P43166 whole entry): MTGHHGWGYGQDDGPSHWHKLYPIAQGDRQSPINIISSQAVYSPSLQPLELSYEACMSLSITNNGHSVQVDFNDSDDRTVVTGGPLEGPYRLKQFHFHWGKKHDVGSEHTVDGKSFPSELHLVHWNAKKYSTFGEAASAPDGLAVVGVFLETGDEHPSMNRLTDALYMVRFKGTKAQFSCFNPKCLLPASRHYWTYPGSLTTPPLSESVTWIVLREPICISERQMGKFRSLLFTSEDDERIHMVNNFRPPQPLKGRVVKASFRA
From the text: as §2

| SMILES | IC50 [1] [µM] | Ki [2] [µM] | Ki [3] [µM] | inhibition at 200 µM ([4]; at 200 µM) [%] | Ki [5] [µM] | Ki [6] [µM] | Ki [7] [µM] | IC50 [8] [µM] | Tyrosinase activity % inhibition [9] | IC50 [10] [µM] | Ki [11] [µM] | inhibition at 200 µM [4] [%] |
| --- | --- | --- | --- | --- | --- | --- | --- | --- | --- | --- | --- | --- |
| CC(=O)Nc1ccc(S(=O)(=O)NN=Cc2cc3c(O)c(c2)Cc2cc(C(C)(C)C)cc4c2OCC(=O)NCCNC(=O)COc2c(cc(C(C)(C)C)cc2Cc2cc(C=NNS(=O)(=O)c5ccc(NC(C)=O)cc5)cc(c2O)C4)C3)cc1 [CX-6] | > 1000 | > 100 | > 100 | 35.4 ± 0.9 | > 100 | > 100 | 64.6 | 7.74 ± 0.04 | 28.15 ± 0.74% | 9.02 ± 0.05 | > 100 | – |
| CC(C)(C)c1cc2c3c(c1)Cc1cc(C=Nc4ccc(S(=O)(=O)Nc5ncccn5)cc4)cc(c1O)Cc1cc(C(C)(C)C)cc(c1OCC(=O)NCCNC(=O)CO3)Cc1cc(C=Nc3ccc(S(=O)(=O)Nc4ncccn4)cc3)cc(c1O)C2 [CX-3] | > 1000 | 10.2 | > 100 | – | > 100 | > 100 | 46 | 121 ± 0.95 | 35.52 ± 0.82% | > 1000 | > 100 | – |
| Cc1cc(NS(=O)(=O)c2ccc(/N=C/c3cc4c(O)c(c3)Cc3cc(C(C)(C)C)cc5c3OCC(=O)NCCNC(=O)COc3c(cc(C(C)(C)C)cc3Cc3cc(/C=N/c6ccc(S(=O)(=O)Nc7cc(C)on7)cc6)cc(c3O)C5)C4)cc2)no1 [CX-2] | > 1000 | > 100 | > 100 | – | > 100 | > 100 | 67.6 | > 1000 | 19.55 ± 0.43% | > 1000 | > 100 | – |
| COc1ccc2c3c1O[C@H]1C[C@@H](O)C=C[C@@]31CCN(C)C2 [Galantamine, reference compound] | – | – | – | – | – | – | – | – | – | – | – | 76.5 ± 1.28 |
| O=C(O)CN(CCN(CC(=O)O)CC(=O)O)CC(=O)O [EDTA, reference compound] | 26.82 ± 0.1 | – | – | – | – | – | – | – | – | – | – | – |
| O=c1cc(CO)occ1O [Kojik acid, kojic acid, reference compound] | – | – | – | – | – | – | – | – | 95.26 ± 0.23% | – | – | – |
| CC(C)(C)c1cc2c3c(c1)Cc1cc(C=Nc4ccc(S(N)(=O)=O)cc4)cc(c1O)Cc1cc(C(C)(C)C)cc(c1OCC(=O)NCCNC(=O)CO3)Cc1cc(C=Nc3ccc(S(N)(=O)=O)cc3)cc(c1O)C2 [CX-1] | > 1000 | 0.27 | 0.82 | – | 5.55 | 4.36 | 0.15 | 769.97 ± 0.22 | 24.46 ± 0.53% | > 1000 | 1.21 | – |
| COc1ccc(O)c(C(C)(C)C)c1 [BHA, reference compound] | – | – | – | – | – | – | – | 17.59 ± 0.1 | – | 7.88 ± 0.2 | – | – |
| Cc1cc(C(C)(C)C)c(O)c(C(C)(C)C)c1 [BHT, reference compound] | – | – | – | – | – | – | – | 13.2 ± 0.27 | – | 58.86 ± 0.5 | – | – |
| CC(C)(C)c1cc2c3c(c1)Cc1cc(C=Nc4ccc(S(=O)(=O)Nc5nc6ccccc6s5)cc4)cc(c1O)Cc1cc(C(C)(C)C)cc(c1OCC(=O)NCCNC(=O)CO3)Cc1cc(C=Nc3ccc(S(=O)(=O)Nc4nc5ccccc5s4)cc3)cc(c1O)C2 [CX-4] | > 1000 | > 100 | > 100 | – | > 100 | > 100 | > 100 | > 1000 | 16.48 ± 0.21% | 520.3 ± 0.89 | > 100 | – |
| Cc1ccc(S(=O)(=O)NN=Cc2cc3c(O)c(c2)Cc2cc(C(C)(C)C)cc4c2OCC(=O)NCCNC(=O)COc2c(cc(C(C)(C)C)cc2Cc2cc(C=NNS(=O)(=O)c5ccc(C)cc5)cc(c2O)C4)C3)cc1 [CX-5] | > 1000 | > 100 | > 100 | – | > 100 | > 100 | > 100 | 9.79 ± 0.09 | no activity | 16.8 ± 0.85 | > 100 | – |
